Data reported in patent US20090233942A1, “Genetic markers associated with response to antidepressants” (priority 2008, published 2009).

Tested on: adult patients diagnosed with MDD
Assay: Eight-week randomized, double-blind, placebo-controlled study: association of sequenced gene markers (Tables 1-17) with vilazodone response as change of MADRS
Format: in vivo, human
Conditions: mean MADRS decrease
Source text: There was a wide range of inter-individual variability in response to vilazodone as well as to placebo and the active comparators. This variability may be partially due to genetic differences among the individuals treated. This example illustrates a randomized, double-blind, placebo-controlled, multicenter, eight-week study designed to discover genetic markers of response to vilazodone in adult patients diagnosed with MDD by the DSM-IV-TR criteria. Patients must have met all of the following inclusion criteria to be considered for enrollment in the study: (1) 18-65 years of age; (2) diagnosis of MDD, single episode or recurrent, according to DSM-IV-TR (296.2/296.3) with a current Major Depressive Episode of less than one year's duration with a minimum duration of at least 4 weeks; (3) HAM-D score≧22 on the first 17 items of the 21-item HAM-D at screening and baseline visits; (4) HAM-D item 1 (depressed mood) score≧2 at the screening visit and the baseline visit; (5) provision of written informed consent to participate; and (6) ability to speak, read and understand English and to respond to questions and follow simple instructions.
Following randomization into vilazodone and placebo groups, patients began the forced titration schedule. Patients received 10 mg qd until Visit 3 (approximately Day 7). At Visit 3 patients received 20 mg qd until Visit 4 (approximately Day 14). At Visit 4 patients received the target dose of 40 mg qd (approximately Day 15). A total of 152 patients completed the vilazodone arm, while 154 patients completed the placebo arm.
This example illustrates genotyping of the study group for the ACE, ATP5C3, BCL2L1, CYP2C9, DRD3, FOS, DTNBP1, GABRG3, GRIA4, LAMA4, MAPK1, NPY1R, OPRD1, OPRM1, PER3, PLCB1, and PSMD1 polymorphic sites selected by the inventors herein for analysis. Genomic DNA was isolated from blood obtained from each individual and amplified target regions containing the polymorphic sites in Tables A-21 to A-37 (Appendix A) were sequenced to determine the genotypes at these polymorphic sites. Tailed (Universal M13 Forward and Reverse) PCR primers were designed using the sequence of SEQ ID NO:1 for ACE, SEQ ID NO:2 for ATP5C3, SEQ ID NO:3 for BCL2L1, SEQ ID NO:4 for CYP2C9, SEQ ID NO:5 for DRD3, SEQ ID NO:6 for FOS, SEQ ID NO:7 for DTNBP1, SEQ ID NO:8 for GABRG3, SEQ ID NO:9 for GRIA4, SEQ ID NO:10 for LAMA4, SEQ ID NO:11 for MAPK1, SEQ ID NO:12 for NPY1R, SEQ ID NO:13 for OPRD1, SEQ ID NO:14 for OPRM1, SEQ ID NO:15 for PER3, SEQ ID NO:16 for PLCB1, and SEQ ID NO:17 for PSMD1. Amplified PCR products were sequenced using Applied Biosystems' Big Dye® Terminator v 3.1 cycle sequencing kit according to manufacturer's instructions. The reaction products were then electrophoresed using an Applied Biosystems 3700 or 3730xl DNA analyzer. Polymorphisms were identified using the Polyphred program, and confirmed by visual inspection.
Haplotypes were estimated from the unphased genotypes using a computer-implemented algorithm for assigning haplotypes to unrelated individuals in a population sample, essentially as described in WO 01/80156. In this method, haplotypes are assigned directly from individuals who are homozygous at all sites or heterozygous at no more than one of the variable sites. This list of haplotypes is then used to deconvolute the unphased genotypes in the remaining (multiply heterozygous) individuals.
This example illustrates analysis of the markers in Tables A-1 to A-17 (Appendix A) for association with vilazodone response. A proprietary algorithm was used as a tool for finding associations between markers and outcomes. The clinical outcomes were improvement in disease over eight weeks of treatment with vilazodone as measured by the MADRS scale. A linear model was first fitted on the covariates, which were treatment center, race, ethnicity, and baseline values. […]

[1] = PLCB1 marker 1, carriers vs non-carriers
[2] = PLCB1 marker 2, carriers vs non-carriers
[3] = PLCB1 marker 3, carriers vs non-carriers
[4] = PLCB1 marker 4, carriers vs non-carriers
[5] = PLCB1 marker 5, carriers vs non-carriers
[6] = PLCB1 marker 6, carriers vs non-carriers
[7] = PLCB1 marker 7, carriers vs non-carriers
[8] = PLCB1 marker 8, carriers vs non-carriers
[9] = PLCB1 marker 9, carriers vs non-carriers
[10] = PLCB1 marker 10, carriers vs non-carriers
[11] = PLCB1 marker 11, carriers vs non-carriers
[12] = PLCB1 marker 12, carriers vs non-carriers
[13] = PLCB1 marker 13, carriers vs non-carriers
[14] = PLCB1 marker 17, carriers vs non-carriers
[15] = PLCB1 marker 18, carriers vs non-carriers
[16] = PLCB1 marker 19, carriers vs non-carriers
[17] = PLCB1 marker 20, carriers vs non-carriers
[18] = PLCB1 marker 21, carriers vs non-carriers
[19] = PLCB1 marker 22, carriers vs non-carriers
[20] = PLCB1 marker 23, carriers vs non-carriers
[21] = PLCB1 marker 24, carriers vs non-carriers
[22] = PLCB1 marker 25, carriers vs non-carriers
[23] = PLCB1 marker 26, carriers vs non-carriers
[24] = PLCB1 marker 27, carriers vs non-carriers
[25] = PLCB1 marker 28, carriers vs non-carriers
[26] = PLCB1 marker 29, carriers vs non-carriers
[27] = PLCB1 marker 30, carriers vs non-carriers
[28] = PLCB1 marker 31, carriers vs non-carriers
[29] = PLCB1 marker 32, carriers vs non-carriers
[30] = PLCB1 marker 33, carriers vs non-carriers
[31] = PLCB1 marker 34, carriers vs non-carriers
[32] = PLCB1 marker 35, carriers vs non-carriers
[33] = PLCB1 marker 36, carriers vs non-carriers
[34] = PLCB1 marker 37, carriers vs non-carriers
[35] = PLCB1 marker 38, carriers vs non-carriers
[36] = PLCB1 marker 39, carriers vs non-carriers
[37] = PLCB1 marker 40, carriers vs non-carriers
[38] = PLCB1 marker 41, carriers vs non-carriers
[39] = PLCB1 marker 42, carriers vs non-carriers
[40] = PLCB1 marker 43, carriers vs non-carriers
[41] = PLCB1 marker 44, carriers vs non-carriers
[42] = PLCB1 marker 45, carriers vs non-carriers
[43] = PLCB1 marker 46, carriers vs non-carriers
[44] = PLCB1 marker 47, carriers vs non-carriers
[45] = PLCB1 marker 48, carriers vs non-carriers
[46] = PLCB1 marker 49, carriers vs non-carriers
[47] = PLCB1 marker 50, carriers vs non-carriers
[48] = PLCB1 marker 51, carriers vs non-carriers
[49] = PLCB1 marker 52, carriers vs non-carriers
[50] = PLCB1 marker 53, carriers vs non-carriers

Cl.N#Cc1ccc2[nH]cc(CCCCN3CCN(c4ccc5oc(C(N)=O)cc5c4)CC3)c2c1 [Vilazodone, 5-{4-[4-(5-Cyano-3-indolyl)-butyl]-1-piperazinyl}-benzofuran-2-carboxamide hydrochloride]
Response difference (Cauc. only) [1]: −6.1
Response difference (all ethnic.) [1]: −4.8
Response difference (Cauc. only) [2]: −6.2
Response difference (all ethnic.) [2]: −4.8
Response difference (Cauc. only) [3]: −6.5
Response difference (all ethnic.) [3]: −5.1
Response difference (Cauc. only) [4]: −6.6
Response difference (all ethnic.) [4]: −5.1
Response difference (Cauc. only) [5]: −5.9
Response difference (all ethnic.) [5]: −4.3
Response difference (Cauc. only) [6]: −6
Response difference (all ethnic.) [6]: −4.3
Response difference (Cauc. only) [7]: −5.4
Response difference (all ethnic.) [7]: −3.9
Response difference (Cauc. only) [8]: −6
Response difference (all ethnic.) [8]: −4.3
Response difference (Cauc. only) [9]: −6.4
Response difference (all ethnic.) [9]: −5.1
Response difference (Cauc. only) [10]: −5.8
Response difference (all ethnic.) [10]: −4.6
Response difference (Cauc. only) [11]: −6.4
Response difference (all ethnic.) [11]: −5.2
Response difference (Cauc. only) [12]: −7
Response difference (all ethnic.) [12]: −5.6
Response difference (Cauc. only) [13]: −6.2
Response difference (all ethnic.) [13]: −4.9
Response difference (Cauc. only) [14]: −6
Response difference (all ethnic.) [14]: −4.7
Response difference (Cauc. only) [15]: −6
Response difference (all ethnic.) [15]: −4.7
Response difference (Cauc. only) [16]: −6.6
Response difference (all ethnic.) [16]: −4.6
Response difference (Cauc. only) [17]: −6.7
Response difference (all ethnic.) [17]: −4.7
Response difference (Cauc. only) [18]: −5.9
Response difference (all ethnic.) [18]: −4.2
Response difference (Cauc. only) [19]: −6.7
Response difference (all ethnic.) [19]: −4.7
Response difference (Cauc. only) [20]: −6.1
Response difference (all ethnic.) [20]: −4.8
Response difference (Cauc. only) [21]: −6.2
Response difference (all ethnic.) [21]: −4.8
Response difference (Cauc. only) [22]: −6.5
Response difference (all ethnic.) [22]: −5.1
Response difference (Cauc. only) [23]: −6.5
Response difference (all ethnic.) [23]: −5.1
Response difference (Cauc. only) [24]: −6.5
Response difference (all ethnic.) [24]: −5.1
Response difference (Cauc. only) [25]: −6.5
Response difference (all ethnic.) [25]: −5.1
Response difference (Cauc. only) [26]: −6.5
Response difference (all ethnic.) [26]: −5.1
Response difference (Cauc. only) [27]: −6.5
Response difference (all ethnic.) [27]: −5.1
Response difference (Cauc. only) [28]: −6.5
Response difference (all ethnic.) [28]: −5.1
Response difference (Cauc. only) [29]: −6.5
Response difference (all ethnic.) [29]: −5.1
Response difference (Cauc. only) [30]: −6.5
Response difference (all ethnic.) [30]: −5.1
Response difference (Cauc. only) [31]: −6.5
Response difference (all ethnic.) [31]: −5.1
Response difference (Cauc. only) [32]: −6.5
Response difference (all ethnic.) [32]: −5.1
Response difference (Cauc. only) [33]: −6.5
Response difference (all ethnic.) [33]: −5.1
Response difference (Cauc. only) [34]: −6.5
Response difference (all ethnic.) [34]: −5.1
Response difference (Cauc. only) [35]: −6.5
Response difference (all ethnic.) [35]: −5.1
Response difference (Cauc. only) [36]: −6.5
Response difference (all ethnic.) [36]: −5.1
Response difference (Cauc. only) [37]: −6.6
Response difference (all ethnic.) [37]: −5.1
Response difference (Cauc. only) [38]: −6.6
Response difference (all ethnic.) [38]: −5.1
Response difference (Cauc. only) [39]: −6.6
Response difference (all ethnic.) [39]: −5.1
Response difference (Cauc. only) [40]: −6.6
Response difference (all ethnic.) [40]: −5.1
Response difference (Cauc. only) [41]: −6.6
Response difference (all ethnic.) [41]: −5.1
Response difference (Cauc. only) [42]: −6.6
Response difference (all ethnic.) [42]: −5.1
Response difference (Cauc. only) [43]: −6.6
Response difference (all ethnic.) [43]: −5.1
Response difference (Cauc. only) [44]: −6.6
Response difference (all ethnic.) [44]: −5.1
Response difference (Cauc. only) [45]: −6.6
Response difference (all ethnic.) [45]: −5.1
Response difference (Cauc. only) [46]: −6.6
Response difference (all ethnic.) [46]: −5.1
Response difference (Cauc. only) [47]: −6.6
Response difference (all ethnic.) [47]: −5.1
Response difference (Cauc. only) [48]: −6.6
Response difference (all ethnic.) [48]: −5.1
Response difference (Cauc. only) [49]: −6.6
Response difference (all ethnic.) [49]: −5.1
Response difference (Cauc. only) [50]: −6.6
Response difference (all ethnic.) [50]: −5.1
